Source: patent US8703424B2, “Predicting human developmental toxicity of pharmaceuticals using human stem-like cells and metabolomics” (Stemina Biomarker Discovery, Inc., priority 2010, dated 2014)
Read-outs that look alike come from different tables or passages of the source.

Experiments:
hESCs = assay: Arginine / ADMA fold change ratio (integrated EICs) in dosed hESCs vs controls; conditions: for Arg fold change/ADMA fold change: EIC areas, controls vs. dosed
Experimental: All tested chemicals were purchased from Sigma-Aldrich (St. Louis, Mo.). Cells were dosed with drugs at a concentration equivalent to their published serum circulating therapeutic dosages. Dosing was performed on hESCs in 6-well plates in triplicate, i.e. three wells per plate. The plates were dosed in triplicate, so there were a total of nine dosed wells. In parallel, there were nine “control” wells, in which hESCs were cultured with mTeSR1 containing no drug, and three wells containing Matrigel with mTeSR1 medium without hESCs that served as medium controls. Lastly, three wells of dosed medium controls were prepared, containing Matrigel, mTeSR1 and drug, but no hESCs (FIG. 1). These medium controls provided baseline mass spectral data. On the first day of dosage, the determined concentration of drug was dissolved in mTeSR1, and then 2.5 mL of this solution was added to each dosed well of hESCs. Each day, for four days, the medium was removed and new dosed medium was added. On the fourth day, the medium was removed and added to acetonitrile to make a 40% acetonitrile solution, as outlined in the Sample Preparation section below.
Mass spectrometry was performed using an Agilent QTOF LC/MS system consisting of a G6520AA QTOF high resolution mass spectrometer capable of exact mass MS and MS/MS. In order to facilitate separation of small molecules with a wide range of polarity and to allow increased retention of hydrophilic species, Hydrophilic Interaction Liquid Chromatography (Alpert 1990) was employed. Each sample was run for 30 minutes with the gradient shown in Table 3 at a flow rate of 0.5 mL/min, using 0.1% formic acid in water (Solvent A) and 0.1% formic acid in acetonitrile (Solvent B). Electrospray ionization was employed using a dual ESI source, with an Agilent isocratic pump continuously delivering an internal mass reference solution into the source at approx. 0.01 mL/min. The mass range of the instrument was set to 100-1700 Da. A Phenomenex Luna HILIC column with dimensions 3×100 mm 3 μm particle size was used and maintained at 30° C. 5 μl of each sample was injected. Data acquisition was performed with Agilent MassHunter using high-resolution exact mass conditions.
Valproate is known to cause neural tube defects (DiLiberti et al. 1984) while nitric oxide synthase activity is essential for neural tube closure (Nachmany et al. 2006).

[1] = test system: WA09 human embryonic stem (hES) cells; assay: PLS-DA prediction of teratogenicity from secretome of treated hES cells (Example 9); conditions: DevTox pharmaceutical
From the text: These included 11 known teratogens and 11 known non-teratogens. The current model is based on the mean fold change (treatment versus its associated intra-experimental control) of 15 metabolites common among the secretome of hES cells treated with pharmaceutical agents and unknown chemical compounds.

WA09 hESCs = assay: Random forest prediction of teratogenicity from metabolomics of spent media of dosed hESCs; assay type: cell-based, human; conditions: for Predicted teratogenicity (random forest statistical model): blind study, model trained on TS1, 142 mass features, circulating dose
Experimental: WA09 hESCs, obtained from WiCell Research Institute (NIH National Stem Cell Bank, Madison, Wis.) were cultured in 6-well plates on Matrigel (BD Biosciences, San Jose, Calif.), in mTeSR1 medium (Stem Cell Technologies, Vancouver, BC) incubated at 37° C. under 5% CO2 in a Thermo Electron Form a Series II Water Jacket CO2 Incubator. hESCs were passaged every three or four days at a 1:3 or 1:6 seeding density for routine culture conditions. For dosing experiments, hESCs were passaged at a low density of 1:10 or 1:12 so that they would not require passaging during the […] dosing protocol. To passage hES cells, the StemPro® EZPassage™ disposable stem cell passaging tool (Invitrogen, Carlsbad, Calif.) was used to detach the cells from the wells. Detached cells were removed with a pipette and distributed to new Matrigel plates.
These medium controls provided baseline mass spectral data.
The 2.5 mL of spent media per well from Example 1 was added to 1.67 mL acetonitrile to make a 40% acetonitrile solution. The acetonitrile acts to “quench” the spent media sample, slowing or halting many metabolic processes and aiding in precipitation of cellular proteins. Samples were either stored at −80° C. for later analysis, or for immediate analysis, 250 μL of the quenched solution was mixed with 250 μL of water, to a final concentration of 20% acetonitrile, then added to a 3 kDa molecular weight cut-off filter spin column (Microcon YM-3 Centrifugal Filter, Millipore, Billerica, Mass.). Each sample was then centrifuged in an IEC CL31R Multispeed Centrifuge (Thermo Scientific, Waltham, Mass.) at 13,000×g at 4° C. for 200 minutes. Following centrifugation, the flow-through was saved then dried for several hours in a Savant High Capacity Speedvac Plus Concentrator. The concentrated sample was then dissolved in 50 μL of 0.1% formic acid prior to LC-MS analysis.
5 μl of each sample was injected.
Following LC-MS, chromatograms were inspected for reproducibility. LC-MS runs with total ion counts that vary by more than 25% were repeated to ensure that samples could be accurately compared. These runs were then used to create mass features that correspond to molecules detected across the different LC-MS runs. Mass features were extracted from the LC-MS data using MassHunter Qualitative Analysis software (Agilent Technologies). The following criteria were used as general guidelines, however some flexibility and optimization was needed. m/z values within the range of 75-1500, with a charge of +1 or −1, and a centroid height greater than 1000 were used to generate “mass features.” The mass peaks that pass these criteria were used to fit isotope and adduct (Na^+, K^+, and NH4^+) patterns corresponding to individual molecules, and to establish the abundance of each mass feature. The abundance is calculated by MassHunter software as the sum of the isotopic and adduct peaks that correspond to a single molecular feature. After data deconvolution, mass features showing at least two ions (e.g. (M^+H)^+ and (M^+H)^++1 or (M^+H)^+ and (M^+Na)^+) and an abundance value greater than 50000 for positive-ion mode data and 10000 in negative-ion mode data were included in the data set used for binning of the mass features.
Following feature selection by MassHunter, the data was further preprocessed by MassProfiler (Agilent) software which aligns mass features across multiple LC-MS data files. Mass features were generated for data from each drug treatment experiment (dosed and control) using the default alignment settings in MassProfiler with the requirement that a feature be present in at least 80% of the samples in one treatment. The mass feature datasets for each drug treatment experiment were further processed in a global manner using custom analysis scripts executed in the R statistical software environment. […]

[2] = high dose (H = 10x circulating dose)
[3] = low dose (L = 0.1x circulating dose)

Compound	Arg fold change/ADMA fold change (hESCs)	Arg/ADMA Prediction (hESCs; from fold change ratio)	Arg/ADMA Prediction (hESCs)	% Non (PLS-DA class probability non-teratogen) [1, 2]	% Ter (PLS-DA class probability teratogen) [1, 2]	Confidence (difference between class probabilities) [1, 2]	Prediction [1, 2]	% Non (PLS-DA class probability non-teratogen) [1, 3]	% Ter (PLS-DA class probability teratogen) [1, 3]	Confidence (difference between class probabilities) [1, 3]	Prediction [1, 3]	Classification by the refined random forest model (FIG. 3) (WA09 hESCs; 18-feature model, 26 drug treatment experiments)	Predicted teratogenicity (random forest statistical model) (WA09 hESCs)	Outcome of the Arg/ADMA metrics for teratogenicity (hESCs)
CC1(C)S[C@@H]2[C@H](NC(=O)Cc3ccccc3)C(=O)N2[C@H]1C(=O)O [Penicillin G]	0.96	Non (Smaller fold change ratios (between 0.9 and 1.1) show a good correlation with non-teratogens)												
CC1=C(/C=C/C(C)=C/C=C/C(C)=C/C(=O)O)C(C)(C)CCC1 [Retinoic Acid]	0.48		Ter											
Nc1nc2ncc(CNc3ccc(C(=O)N[C@@H](CCC(=O)O)C(=O)O)cc3)nc2c(=O)[nH]1 [Folic Acid]	1.08			0.59	0.41	0.18	Non	0.59	0.41	0.18	Non			
O=C1NS(=O)(=O)c2ccccc21 [Saccharin]				0.8	0.2	0.6	Non	0.75	0.25	0.5	Non			
CCCC(CCC)C(=O)O [VPA]				0.34	0.66	0.32	Ter	0.43	0.57	0.14	Ter			
CC1(C)S[C@@H]2[C@H](NC(=O)Cc3ccccc3)C(=O)N2[C@H]1C(=O)O [PenicillinG]				0.57	0.43	0.14	Non	0.55	0.45	0.1	Non			
CN(C)CCOC(c1ccccc1)c1ccccc1 [Diphenhydramine]				0.73	0.27	0.46	Non	0.76	0.24	0.52	Non			
CC1=C(/C=C/C(C)=C/C=C/C(C)=C\C(=O)O)C(C)(C)CCC1 [Accutane]	0.55		Ter	0.3	0.7	0.4	Ter	0.33	0.67	0.34	Ter	misclassified as non-teratogens	Non	
CCCCc1oc2ccccc2c1C(=O)c1cc(I)c(OCCN(CC)CC)c(I)c1 [Amiodarone]	1.64		Ter										Ter	
NNC(=O)c1ccncc1 [Isoniazid]	0.94			0.59	0.41	0.18	Non	0.76	0.24	0.52	Non			
Cn1c(=O)c2c(ncn2C)n(C)c1=O [Caffeine]				0.53	0.47	0.06		0.58	0.42	0.16				
CC(=O)Oc1ccccc1C(=O)O [Aspirin]	1.07													
N[C@@H](Cc1cc(I)c(Oc2cc(I)c(O)c(I)c2)c(I)c1)C(=O)O [Levothyroxine]	1.03	Non (Smaller fold change ratios (between 0.9 and 1.1) show a good correlation with non-teratogens)		0.59	0.41	0.18	Non	0.69	0.31	0.38	Non			
O=C1O[C@H]([C@@H](O)CO)C(O)=C1O [Ascorbic Acid]	1.28		Ter	0.57	0.43	0.14	Non	0.57	0.43	0.14	Non			false positives for teratogenicity
CC1=C(/C=C/C(C)=C/C=C/C(C)=C/C(=O)O)C(C)(C)CCC1 [RetinoicAcid]				0.3	0.7	0.4	Ter	0.3	0.7	0.4	Ter			
